Measurements taken from paper doi:10.1101/2024.02.23.581731v1 (biorxiv, 2024).
Where a chain is given by its changes, count along the chain named.

Assays:
h5-HT3AR [1] = molecular target: T1, h5-HT3AR (Homo sapiens, UniProt P46098); assay: FLIPR Blue membrane potential assay, activation; format: cell-based; conditions: relative to 1 µM VTX
T1 sequence (P46098 24-478): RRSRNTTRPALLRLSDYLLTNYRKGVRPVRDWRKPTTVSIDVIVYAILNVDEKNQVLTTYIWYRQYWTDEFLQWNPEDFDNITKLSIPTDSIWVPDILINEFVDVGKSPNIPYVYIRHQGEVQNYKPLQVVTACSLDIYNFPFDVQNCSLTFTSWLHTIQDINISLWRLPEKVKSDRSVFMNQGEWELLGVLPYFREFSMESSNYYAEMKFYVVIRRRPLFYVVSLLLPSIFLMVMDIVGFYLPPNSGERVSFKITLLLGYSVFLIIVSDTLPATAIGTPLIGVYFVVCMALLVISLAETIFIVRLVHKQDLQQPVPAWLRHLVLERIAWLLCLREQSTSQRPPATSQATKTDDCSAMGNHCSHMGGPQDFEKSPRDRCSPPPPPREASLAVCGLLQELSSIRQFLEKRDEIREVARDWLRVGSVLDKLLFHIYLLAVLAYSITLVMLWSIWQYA

h5-HT3AR [2] = molecular target: T1, h5-HT3AR; assay: [3H]-GR65630 displacement, HEK-293 membranes; format: binding
h5-HT3AR [3] = molecular target: T1, h5-HT3AR; assay: biochemical
h5-HT3AR [4] = molecular target: T2, h5-HT3AR (Homo sapiens, UniProt P46098, V202I); assay: biochemical
T2 sequence (P46098 24-478 V202I): T1 sequence (P46098 24-478) with V179I

gp5-HT3AR = molecular target: T3, gp5-HT3AR (Cavia porcellus, UniProt O70212); assay: FLIPR Blue membrane potential assay, inhibition of 5-HT response; format: cell-based
T3 sequence (O70212 20-490): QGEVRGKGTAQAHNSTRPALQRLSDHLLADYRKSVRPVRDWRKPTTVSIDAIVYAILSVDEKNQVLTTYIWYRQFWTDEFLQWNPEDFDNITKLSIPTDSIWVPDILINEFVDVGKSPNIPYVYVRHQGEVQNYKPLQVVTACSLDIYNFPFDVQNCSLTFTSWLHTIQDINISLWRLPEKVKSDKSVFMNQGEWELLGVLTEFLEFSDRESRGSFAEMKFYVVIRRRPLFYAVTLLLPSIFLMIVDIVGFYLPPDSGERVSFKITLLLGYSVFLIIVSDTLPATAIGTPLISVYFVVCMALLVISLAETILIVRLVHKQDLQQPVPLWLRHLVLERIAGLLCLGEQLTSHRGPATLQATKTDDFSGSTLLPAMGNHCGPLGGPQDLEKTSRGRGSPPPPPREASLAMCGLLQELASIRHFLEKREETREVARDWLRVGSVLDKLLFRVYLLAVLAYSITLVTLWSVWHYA

Row | Structure (SMILES) | Activity (%) at 1 μM (h5-HT3AR [1]) | IC50 (gp5-HT3AR) | also measured
1 | COc1ccc(Sc2ccccc2N2CCNCC2)c(Cl)c1 [5n] | 111 ± 14% |  | 
2 | Cc1ccc(Sc2ccc(C)cc2N2CCNCC2)c(C)c1 [6b] |  |  | Ki (h5-HT3AR [2]): 880 nM
3 | Cc1[nH]cnc1CCC(=O)c1cn(C)c2ccccc12 [[3H]-GR65630] |  |  | Kd (h5-HT3AR [3]): 0.82 ± 0.06 nM; Kd (h5-HT3AR [4]): 0.62 ± 0.05 nM
4 | CN1C2CCCC1CC(NC(=O)c1nn(C)c3ccccc13)C2 (stereo not shown) [granisetron] |  | 1.26 µM | 
5 | Cc1ccc(Sc2ccccc2N2CCNCC2)cc1 [4j] | 95 ± 12% |  | 
6 | Cc1nccn1CC1CCc2c(c3ccccc3n2C)C1=O (stereo not shown) [ondansetron] |  | 9.81 µM | 
